Experimental data published in patent EP3212201B1, “NUCLEOSIDE KINASE INHIBITORS” (BCI Pharma, priority 2014, dated 2016).

What was measured:
Test in all cases: FRET-based coupled-enzyme protein kinase inhibition assay
Format in all cases: biochemical
Conditions in all cases: compound at 10 µM, 1% DMSO
ABL1 = ABL1 (Homo sapiens, UniProt P00519)
Method: (§1) A biochemical assay was then performed in order to measure the protein kinase inhibition. It employed a fluorescence-based coupled-enzyme format and was based on the differential sensitivity of phosphorylated and non-phosphorylated peptides to proteolytic cleavage.
(§2) Peptide substrates were labeled with two fluorophores. The two fluorohores used were coumarin (donor) and fluorecein (acceptor), and each of the peptides was bearing one at one end, and one at the other end, which made up fluorescence resonance energy transfer (FRET) pair peptides.
(§3) In a primary reaction, the FRET-peptides were submitted to a phosphorylation reaction, in which one of adenosine triphosphate (ATP)'s phosphate groups was transferred to the peptide in the presence of kinase. When kinase inhibition takes place, the peptide will not be phosphorylated. In a secondary reaction, both the phosphorylated FRET-peptides and the non-phosphorylated FRET-peptides were reacted with a development reagent. It has been observed that non-phosphorylated FRET-peptides were cleaved, whereas the phosphorylted FRET-peptide remained intact.
(§4) Cleavage disrupts FRET between the donor (i.e., coumarin) and acceptor (i.e., fluorescein) fluorophores on the FRET-peptide, whereas uncleaved, phosphorylated FRET-peptides maintain FRET. A ratiometric method, which calculates the Emission Ratio of donor emission to acceptor emission after excitation of the donor fluorophore at 400 nm, is used to quantitate reaction progress, as shown in the equation below. [formula]
(§5) A significant benefit of this ratiometric method for quantitating reaction progress is the elimination of well-to-well variations in FRET-peptide concentration and signal intensities. As a result, the assay yields very high Z'factor values (>0.7) at a low percent phosphorylation. Both cleaved and uncleaved FRET-peptides contribute to the fluorescence signals and therefore to the Emission Ratio. The extent of phosphorylation of the FRET-peptide can be calculated from the Emission Ratio. The Emission Ratio will remain low if the FRET-peptide is phosphorylated (i.e., no kinase inhibition) and will be high if the FRET-peptide is non-phosphorylated (i.e., kinase inhibition).
(§6) The Test Compounds were screened in 1% DMSO. For 10 point titrations, 3-fold serial dilutions were prepared from the starting concentration.
(§7) All Peptide/Kinase Mixtures were diluted to a 2X working concentration in the appropriate Kinase Buffer (50 mM HEPES pH 7.5, 0.01% BRIJ-35, 10 mM MgCl2, 1 mM […]).
(§8) All ATP Solutions were diluted to a 4X working concentration in Kinase Buffer. ATP Km apparent was previously determined using another assay.
(§9) 2.5 µL - 4X Test Compound or 100 nL 100X plus 2.4 µL kinase buffer were mixed together with 2. 5 µL - 2X Peptide/Kinase Mixture and 3. 2.5 µL - 4X ATP Solution.
(§10) The solution was plate-shaked for 30 seconds, then incubated 60 minutes at room temperature for kinase reaction. 5 µL of Development Reagent Solution were then added, followed by a 30-second plate shake and a 60-minute Development Reaction incubation at room temperature. The results were read on a fluorescence plate reader and the data was analyzed.
(§11) The compounds that show the highest Emission Ratio are the ones that also show the highest protein kinase inhibition properties.

KDR (VEGFR2) = KDR (VEGFR2) (Homo sapiens, UniProt P35968)
Method: as §1, §2, §3, §4, §5, §6, §7, §8, §9, §10, §11

MAP2K1 (MEK1) = MAP2K1 (MEK1) (Homo sapiens, UniProt Q02750)
Method: as §1, §2, §3, §4, §5, §6, §7, §8, §9, §10, §11

MAPK1 (ERK2) = MAPK1 (ERK2) (Homo sapiens, UniProt P28482)
Method: as §1, §2, §3, §4, §5, §6, §7, §8, §9, §10, §11

MAPK3 (ERK1) = MAPK3 (ERK1) (Homo sapiens, UniProt P27361)
Method: as §1, §2, §3, §4, §5, §6, §7, §8, §9, §10, §11

MET (cMet) = MET (cMet) (Homo sapiens, UniProt P08581)
Method: as §1, §2, §3, §4, §5, §6, §7, §8, §9, §10, §11

NEK1 = biological target: T1, NEK1 (Homo sapiens, UniProt Q96PY6)
T1 sequence (Q96PY6 1-1258): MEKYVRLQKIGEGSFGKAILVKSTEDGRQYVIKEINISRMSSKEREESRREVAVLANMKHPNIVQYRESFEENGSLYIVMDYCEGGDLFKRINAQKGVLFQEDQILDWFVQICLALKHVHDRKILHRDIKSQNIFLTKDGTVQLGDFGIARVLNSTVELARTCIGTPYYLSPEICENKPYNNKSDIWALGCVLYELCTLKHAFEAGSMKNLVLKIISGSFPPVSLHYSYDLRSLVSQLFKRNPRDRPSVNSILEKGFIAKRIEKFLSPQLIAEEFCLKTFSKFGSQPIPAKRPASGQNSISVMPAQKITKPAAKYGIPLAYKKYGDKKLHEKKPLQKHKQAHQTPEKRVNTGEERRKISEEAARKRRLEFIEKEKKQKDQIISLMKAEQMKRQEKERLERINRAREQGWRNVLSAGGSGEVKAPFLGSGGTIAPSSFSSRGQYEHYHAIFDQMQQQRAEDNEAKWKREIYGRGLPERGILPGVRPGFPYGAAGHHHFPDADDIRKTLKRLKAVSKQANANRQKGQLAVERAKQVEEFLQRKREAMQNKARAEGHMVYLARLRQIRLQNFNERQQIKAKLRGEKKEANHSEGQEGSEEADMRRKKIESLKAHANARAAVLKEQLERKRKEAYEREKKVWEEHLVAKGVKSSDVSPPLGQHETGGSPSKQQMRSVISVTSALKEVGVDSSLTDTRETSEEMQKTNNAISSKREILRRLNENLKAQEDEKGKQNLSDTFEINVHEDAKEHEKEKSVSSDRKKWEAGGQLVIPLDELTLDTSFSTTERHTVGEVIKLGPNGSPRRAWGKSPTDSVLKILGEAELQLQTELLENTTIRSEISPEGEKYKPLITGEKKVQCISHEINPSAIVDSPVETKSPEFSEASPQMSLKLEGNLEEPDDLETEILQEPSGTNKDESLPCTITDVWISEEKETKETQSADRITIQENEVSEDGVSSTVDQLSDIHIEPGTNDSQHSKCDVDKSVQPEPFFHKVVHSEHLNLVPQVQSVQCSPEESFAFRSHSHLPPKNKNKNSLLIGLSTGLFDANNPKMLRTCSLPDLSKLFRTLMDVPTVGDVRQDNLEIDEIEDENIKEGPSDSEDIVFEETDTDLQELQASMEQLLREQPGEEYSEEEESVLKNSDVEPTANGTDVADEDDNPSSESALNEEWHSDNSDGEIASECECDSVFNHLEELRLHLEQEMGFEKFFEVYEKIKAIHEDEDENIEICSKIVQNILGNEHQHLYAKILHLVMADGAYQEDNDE
Method: as §1, §2, §3, §4, §5, §6, §7, §8, §9, §10, §11

SYK = SYK (Homo sapiens, UniProt P43405)
Method: as §1, §2, §3, §4, §5, §6, §7, §8, §9, §10, §11

TEK (Tie2) = TEK (Tie2) (Homo sapiens, UniProt Q02763)
Method: as §1, §2, §3, §4, §5, §6, §7, §8, §9, §10, §11

Chain of MAPK3 (ERK1) (P27361 whole entry, species assumed): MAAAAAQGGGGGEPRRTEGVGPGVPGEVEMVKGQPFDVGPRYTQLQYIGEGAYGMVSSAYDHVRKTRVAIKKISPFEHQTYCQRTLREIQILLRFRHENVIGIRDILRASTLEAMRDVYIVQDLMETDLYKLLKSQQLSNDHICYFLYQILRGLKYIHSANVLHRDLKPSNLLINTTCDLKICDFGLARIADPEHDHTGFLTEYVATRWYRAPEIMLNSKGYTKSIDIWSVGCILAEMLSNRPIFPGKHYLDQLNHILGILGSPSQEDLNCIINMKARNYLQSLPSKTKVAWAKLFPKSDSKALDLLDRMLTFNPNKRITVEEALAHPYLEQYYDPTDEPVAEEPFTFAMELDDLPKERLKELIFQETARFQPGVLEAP
Chain of MAP2K1 (MEK1) (Q02750 whole entry, species assumed): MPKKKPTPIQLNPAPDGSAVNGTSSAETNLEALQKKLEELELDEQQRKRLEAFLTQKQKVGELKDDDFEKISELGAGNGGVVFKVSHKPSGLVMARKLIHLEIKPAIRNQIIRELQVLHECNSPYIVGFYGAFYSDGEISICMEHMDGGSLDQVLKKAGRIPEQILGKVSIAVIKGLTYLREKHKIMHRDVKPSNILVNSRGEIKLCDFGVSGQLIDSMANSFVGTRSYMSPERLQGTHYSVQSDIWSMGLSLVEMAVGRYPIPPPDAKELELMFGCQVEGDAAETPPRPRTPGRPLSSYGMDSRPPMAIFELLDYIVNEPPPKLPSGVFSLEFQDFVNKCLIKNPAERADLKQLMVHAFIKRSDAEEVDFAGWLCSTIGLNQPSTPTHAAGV
Chain of TEK (Tie2) (Q02763 23-1124, species assumed): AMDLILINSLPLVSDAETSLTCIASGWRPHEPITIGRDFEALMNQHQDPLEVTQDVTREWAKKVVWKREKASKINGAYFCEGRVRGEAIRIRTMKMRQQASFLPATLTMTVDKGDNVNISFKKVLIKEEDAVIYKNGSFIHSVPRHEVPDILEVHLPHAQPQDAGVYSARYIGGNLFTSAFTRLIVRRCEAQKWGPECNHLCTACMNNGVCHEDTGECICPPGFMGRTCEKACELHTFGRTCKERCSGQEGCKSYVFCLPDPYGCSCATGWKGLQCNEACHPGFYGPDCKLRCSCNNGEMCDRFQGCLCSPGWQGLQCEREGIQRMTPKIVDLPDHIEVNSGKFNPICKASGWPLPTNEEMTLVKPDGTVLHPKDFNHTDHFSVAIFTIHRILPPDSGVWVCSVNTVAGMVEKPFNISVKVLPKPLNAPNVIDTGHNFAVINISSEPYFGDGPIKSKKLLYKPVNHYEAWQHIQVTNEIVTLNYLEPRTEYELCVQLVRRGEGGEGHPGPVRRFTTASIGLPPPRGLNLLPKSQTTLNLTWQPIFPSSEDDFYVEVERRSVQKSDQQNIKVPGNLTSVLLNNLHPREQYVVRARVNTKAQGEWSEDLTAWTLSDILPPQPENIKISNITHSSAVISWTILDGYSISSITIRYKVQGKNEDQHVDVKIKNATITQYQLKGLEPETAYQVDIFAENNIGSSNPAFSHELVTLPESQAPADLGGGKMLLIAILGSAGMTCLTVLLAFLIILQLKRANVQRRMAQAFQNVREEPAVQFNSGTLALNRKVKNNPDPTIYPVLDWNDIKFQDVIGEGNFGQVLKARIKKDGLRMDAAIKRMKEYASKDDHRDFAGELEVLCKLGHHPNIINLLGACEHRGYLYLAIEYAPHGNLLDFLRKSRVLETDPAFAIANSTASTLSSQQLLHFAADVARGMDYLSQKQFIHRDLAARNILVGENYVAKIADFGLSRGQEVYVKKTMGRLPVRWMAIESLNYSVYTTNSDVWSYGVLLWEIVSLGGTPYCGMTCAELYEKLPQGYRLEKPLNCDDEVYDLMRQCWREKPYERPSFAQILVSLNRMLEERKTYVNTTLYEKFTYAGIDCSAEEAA
Chain of KDR (VEGFR2) (P35968 20-1356, species assumed): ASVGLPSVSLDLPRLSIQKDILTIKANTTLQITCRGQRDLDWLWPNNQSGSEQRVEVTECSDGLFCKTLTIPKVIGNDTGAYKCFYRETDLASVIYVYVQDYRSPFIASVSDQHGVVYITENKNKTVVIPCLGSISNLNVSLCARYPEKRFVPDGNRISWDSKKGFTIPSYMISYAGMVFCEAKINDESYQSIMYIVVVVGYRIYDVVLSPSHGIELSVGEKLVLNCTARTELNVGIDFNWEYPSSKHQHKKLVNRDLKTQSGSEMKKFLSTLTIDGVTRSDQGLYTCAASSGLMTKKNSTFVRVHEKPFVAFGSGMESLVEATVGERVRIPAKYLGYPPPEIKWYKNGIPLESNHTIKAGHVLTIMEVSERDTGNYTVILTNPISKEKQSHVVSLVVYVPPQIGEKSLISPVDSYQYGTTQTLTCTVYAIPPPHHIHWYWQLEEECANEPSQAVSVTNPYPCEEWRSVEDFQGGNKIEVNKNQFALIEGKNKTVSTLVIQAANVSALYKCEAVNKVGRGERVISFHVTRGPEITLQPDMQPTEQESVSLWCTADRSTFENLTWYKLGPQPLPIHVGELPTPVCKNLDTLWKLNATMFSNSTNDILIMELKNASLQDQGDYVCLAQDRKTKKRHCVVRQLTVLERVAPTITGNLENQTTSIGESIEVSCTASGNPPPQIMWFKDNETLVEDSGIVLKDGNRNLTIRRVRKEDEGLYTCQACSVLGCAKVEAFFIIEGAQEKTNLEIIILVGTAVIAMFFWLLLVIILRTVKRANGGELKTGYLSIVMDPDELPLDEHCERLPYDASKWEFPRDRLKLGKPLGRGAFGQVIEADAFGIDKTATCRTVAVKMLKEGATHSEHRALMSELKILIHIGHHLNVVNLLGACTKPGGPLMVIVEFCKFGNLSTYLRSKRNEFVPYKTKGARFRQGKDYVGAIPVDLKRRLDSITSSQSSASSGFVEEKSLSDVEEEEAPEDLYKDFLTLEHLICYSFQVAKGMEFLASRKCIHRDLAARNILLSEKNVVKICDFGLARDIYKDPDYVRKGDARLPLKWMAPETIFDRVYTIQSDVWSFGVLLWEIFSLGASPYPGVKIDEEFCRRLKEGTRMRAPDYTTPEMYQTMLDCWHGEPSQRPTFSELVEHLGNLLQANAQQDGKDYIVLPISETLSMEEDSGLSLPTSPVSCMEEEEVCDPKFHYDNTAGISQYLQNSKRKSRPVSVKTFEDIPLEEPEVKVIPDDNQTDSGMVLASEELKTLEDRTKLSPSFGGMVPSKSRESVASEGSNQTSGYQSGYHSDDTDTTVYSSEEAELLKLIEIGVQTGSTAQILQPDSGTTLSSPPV
Chain of MET (cMet) (P08581 25-1390): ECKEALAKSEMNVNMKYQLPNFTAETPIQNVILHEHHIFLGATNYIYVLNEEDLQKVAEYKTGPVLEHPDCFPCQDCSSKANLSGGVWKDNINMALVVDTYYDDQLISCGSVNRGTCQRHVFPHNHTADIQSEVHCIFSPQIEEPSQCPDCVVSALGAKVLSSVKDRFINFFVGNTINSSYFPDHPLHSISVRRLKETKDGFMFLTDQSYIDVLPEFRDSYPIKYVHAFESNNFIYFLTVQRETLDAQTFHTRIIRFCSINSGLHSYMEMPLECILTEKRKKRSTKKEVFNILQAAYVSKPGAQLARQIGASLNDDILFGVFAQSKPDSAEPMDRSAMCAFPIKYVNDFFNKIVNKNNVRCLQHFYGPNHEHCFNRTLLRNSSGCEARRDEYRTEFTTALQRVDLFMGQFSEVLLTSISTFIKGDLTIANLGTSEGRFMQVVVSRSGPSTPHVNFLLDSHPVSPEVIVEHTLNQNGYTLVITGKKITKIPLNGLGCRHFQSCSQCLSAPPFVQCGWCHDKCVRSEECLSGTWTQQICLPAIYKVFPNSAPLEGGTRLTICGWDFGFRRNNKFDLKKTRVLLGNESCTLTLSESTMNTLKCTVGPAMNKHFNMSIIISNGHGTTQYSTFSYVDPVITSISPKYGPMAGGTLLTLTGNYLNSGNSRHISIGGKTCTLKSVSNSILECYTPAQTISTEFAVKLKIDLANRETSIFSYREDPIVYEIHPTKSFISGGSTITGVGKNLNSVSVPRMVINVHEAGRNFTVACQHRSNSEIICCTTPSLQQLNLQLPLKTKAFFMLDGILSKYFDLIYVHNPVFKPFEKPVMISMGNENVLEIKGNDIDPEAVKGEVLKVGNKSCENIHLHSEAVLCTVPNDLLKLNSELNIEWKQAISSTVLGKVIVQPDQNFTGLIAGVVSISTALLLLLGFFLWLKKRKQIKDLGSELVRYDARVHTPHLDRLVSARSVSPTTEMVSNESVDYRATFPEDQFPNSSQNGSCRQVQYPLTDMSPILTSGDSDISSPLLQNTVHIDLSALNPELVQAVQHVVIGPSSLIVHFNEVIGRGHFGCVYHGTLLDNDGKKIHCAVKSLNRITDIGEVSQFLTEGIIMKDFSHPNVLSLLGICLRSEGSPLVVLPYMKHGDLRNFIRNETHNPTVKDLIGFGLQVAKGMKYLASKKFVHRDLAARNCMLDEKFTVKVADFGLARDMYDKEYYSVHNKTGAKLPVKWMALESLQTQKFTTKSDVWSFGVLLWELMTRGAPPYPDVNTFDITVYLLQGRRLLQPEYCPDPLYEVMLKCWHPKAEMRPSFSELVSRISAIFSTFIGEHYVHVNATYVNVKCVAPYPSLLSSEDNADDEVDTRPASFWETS
Chain of MAPK1 (ERK2) (P28482 whole entry, species assumed): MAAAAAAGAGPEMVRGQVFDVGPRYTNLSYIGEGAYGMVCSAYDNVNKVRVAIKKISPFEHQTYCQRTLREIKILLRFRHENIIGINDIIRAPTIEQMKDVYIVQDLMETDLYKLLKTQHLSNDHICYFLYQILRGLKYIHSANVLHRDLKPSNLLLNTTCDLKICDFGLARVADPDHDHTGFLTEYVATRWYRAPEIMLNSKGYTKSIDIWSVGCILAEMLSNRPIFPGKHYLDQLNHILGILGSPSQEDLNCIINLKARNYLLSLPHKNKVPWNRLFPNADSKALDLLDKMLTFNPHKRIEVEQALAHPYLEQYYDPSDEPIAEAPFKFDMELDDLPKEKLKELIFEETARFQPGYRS

inhibition at 10 µM (ABL1) [%]	inhibition at 10 µM (KDR (VEGFR2)) [%]	inhibition at 10 µM (MAP2K1 (MEK1)) [%]	inhibition at 10 µM (MAPK1 (ERK2)) [%]	inhibition at 10 µM (MAPK3 (ERK1)) [%]	inhibition at 10 µM (MET (cMet)) [%]	inhibition at 10 µM (NEK1) [%]	inhibition at 10 µM (SYK) [%]	inhibition at 10 µM (TEK (Tie2)) [%]	Structure (SMILES)
13	-6	11	7	5	0	-4	3	3	Nc1ncnc2c1ncn2[C@@H]1O[C@H](COC(=O)NCCCc2nc3ccccc3[nH]2)[C@@H](O)[C@H]1O [Compound C1]
-5	-7	-3	9	1	1	-2	-8	0	Nc1ncnc2c1ncn2[C@@H]1O[C@H](COC(=O)NCCN2CCCC2=O)[C@@H](O)[C@H]1O [Compound C22]
-2	-3	-3	11	5	-11	-3	-4	-4	Nc1ncnc2c1ncn2[C@@H]1O[C@H](COC(=O)N2CCC[C@H]2CO)[C@@H](O)[C@H]1O [Compound C9]
2	-3	4	11	8	-5	-7	-4	-4	Nc1ncnc2c1ncn2[C@@H]1O[C@H](COC(=O)N2CCN(CCc3ccccc3)CC2)[C@@H](O)[C@H]1O [Compound C26]
1	-3	5	13	10	-3	-3	-3	2	Nc1ncnc2c1ncn2[C@@H]1O[C@H](COC(=O)N2CCS(=O)(=O)CC2)[C@@H](O)[C@H]1O [Compound C100]
15	8	4	16	8	-12	0	2	58	CS(=O)(=O)N1CC2(CCN(C(=O)OC[C@H]3O[C@@H](n4cnc5c(N)ncnc54)[C@H](O)[C@@H]3O)CC2)c2ccccc21 [Compound C98]
-2	3	-1	9	-2	-14	-5	1	4	Nc1ncnc2c1ncn2[C@@H]1O[C@H](COC(=O)N2CCC(Cc3ccc(F)cc3)C2)[C@@H](O)[C@H]1O (stereo partly drawn) [Compound C66]
-2	2	-3	8	2	-12	1	-1	0	CN(C)CCNC(=O)OC[C@H]1O[C@@H](n2cnc3c(N)ncnc32)[C@H](O)[C@@H]1O [Compound C85]
-7	-12	3	16	4	-2	6	-1	1	N#CCCN1CCN(C(=O)OC[C@H]2O[C@@H](n3cnc4c(N)ncnc43)[C@H](O)[C@@H]2O)CC1 [Compound C70]
-3	-10	-2	7	4	2	-2	-1	6	CC(C)N1CCC(NC(=O)OC[C@H]2O[C@@H](n3cnc4c(N)ncnc43)[C@H](O)[C@@H]2O)CC1 [Compound C19]
10	8	0	8	5	-1	11	1	6	Nc1ncnc2c1ncn2[C@@H]1O[C@H](COC(=O)N[C@@H]2CCN(Cc3ccccc3)C2)[C@@H](O)[C@H]1O [Compound C10]
0	-3	1	10	5	0	4	0	5	Nc1ncnc2c1ncn2[C@@H]1O[C@H](COC(=O)N2CCN(Cc3ccccc3)CC2CO)[C@@H](O)[C@H]1O (stereo partly drawn) [Compound C13]
10	-7	-1	9	2	8	7	0	0	CN1CCN(CCNC(=O)OC[C@H]2O[C@@H](n3cnc4c(N)ncnc43)[C@H](O)[C@@H]2O)CC1 [Compound C46]
